What is called IC50 is the point on the concentration scale where inhibition reaches its midpoint. A lower IC50 goes with inhibition by little substance. One may read the Cmax as the maximum level reached in the sampled fluid or tissue.

Structures are written as SMILES.

Series [1] deals with T1, Glucocorticoid receptor (Homo sapiens, UniProt P04150).
T1 sequence (P04150 whole entry): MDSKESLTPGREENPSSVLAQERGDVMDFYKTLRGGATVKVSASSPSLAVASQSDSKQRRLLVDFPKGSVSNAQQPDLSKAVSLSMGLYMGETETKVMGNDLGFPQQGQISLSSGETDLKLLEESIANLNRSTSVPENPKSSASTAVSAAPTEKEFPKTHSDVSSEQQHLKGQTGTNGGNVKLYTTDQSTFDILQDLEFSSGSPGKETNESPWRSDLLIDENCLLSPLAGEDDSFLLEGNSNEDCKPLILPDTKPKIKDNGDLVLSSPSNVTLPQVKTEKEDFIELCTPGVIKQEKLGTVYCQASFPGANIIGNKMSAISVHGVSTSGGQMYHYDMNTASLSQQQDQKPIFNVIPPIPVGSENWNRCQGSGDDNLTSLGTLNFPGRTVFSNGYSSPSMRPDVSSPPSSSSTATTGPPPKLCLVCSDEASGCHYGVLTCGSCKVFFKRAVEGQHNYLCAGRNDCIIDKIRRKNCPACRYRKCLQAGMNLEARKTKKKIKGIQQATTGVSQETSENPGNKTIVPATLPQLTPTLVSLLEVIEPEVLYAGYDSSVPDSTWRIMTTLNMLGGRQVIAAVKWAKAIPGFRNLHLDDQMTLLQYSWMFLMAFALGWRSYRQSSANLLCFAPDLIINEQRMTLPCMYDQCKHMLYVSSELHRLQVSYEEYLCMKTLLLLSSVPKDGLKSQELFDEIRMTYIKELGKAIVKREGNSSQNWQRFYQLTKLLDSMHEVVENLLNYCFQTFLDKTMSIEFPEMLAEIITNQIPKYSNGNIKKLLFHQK
The following applies: blood.
Description: Therapeutic index, ratio of fIC20 for transrepression of GR in cryopreserved human fetal osteoblasts assessed as inhibition of OPG mRNA expression to fIC30 for transrepression of GR in human whole blood assessed as inhibition of LPS-induced TNF-alpha release

In the next series the test system is Rattus norvegicus. Nature of the series: Dose normalized Cmax in Han-Wistar rat at 2.1 mg/kg, po. Format: ADME, organism-based. The conditions noted are these: in vivo.
In series [2] the target is T2, Glucocorticoid receptor (Rattus norvegicus, UniProt P06536).
T2 sequence (P06536 whole entry): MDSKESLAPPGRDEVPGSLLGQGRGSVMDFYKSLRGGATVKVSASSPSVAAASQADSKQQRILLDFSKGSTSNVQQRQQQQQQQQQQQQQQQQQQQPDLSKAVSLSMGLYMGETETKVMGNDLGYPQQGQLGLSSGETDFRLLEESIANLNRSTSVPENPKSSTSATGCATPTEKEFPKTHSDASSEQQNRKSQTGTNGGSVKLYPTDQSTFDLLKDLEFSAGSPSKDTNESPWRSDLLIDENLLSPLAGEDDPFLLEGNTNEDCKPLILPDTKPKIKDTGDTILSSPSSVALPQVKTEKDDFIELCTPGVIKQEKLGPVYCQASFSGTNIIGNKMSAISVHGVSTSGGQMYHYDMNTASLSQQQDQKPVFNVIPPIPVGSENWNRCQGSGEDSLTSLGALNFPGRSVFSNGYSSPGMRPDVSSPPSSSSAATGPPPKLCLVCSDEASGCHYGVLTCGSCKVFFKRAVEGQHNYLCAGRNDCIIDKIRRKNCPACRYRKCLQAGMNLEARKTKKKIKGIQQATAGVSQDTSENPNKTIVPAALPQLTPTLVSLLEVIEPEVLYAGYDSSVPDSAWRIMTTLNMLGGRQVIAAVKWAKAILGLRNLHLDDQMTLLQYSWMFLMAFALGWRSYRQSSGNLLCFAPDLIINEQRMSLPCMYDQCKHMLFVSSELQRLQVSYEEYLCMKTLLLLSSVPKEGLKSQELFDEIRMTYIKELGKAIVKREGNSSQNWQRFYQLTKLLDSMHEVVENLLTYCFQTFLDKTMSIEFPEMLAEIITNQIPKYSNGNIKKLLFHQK
Nature of the series: Modulation of glucocorticoid receptor in rat whole blood.

The nature of series [3]: Terminal half life in Han-Wistar rat at 2.1 mg/kg, po. The series is classed as ADME, organism-based. The conditions noted are these: in vivo, read-out: beta t1/2 (converted).
Series [4] can be described thus: Cmax in Han-Wistar rat plasma at 0.8 mg/kg, po. The series is classed as ADME, organism-based. Also noted: dose 0.8 mg/kg, route oral.
The next series addresses T3, Androgen receptor (Homo sapiens, UniProt P10275).
T3 sequence (P10275 whole entry): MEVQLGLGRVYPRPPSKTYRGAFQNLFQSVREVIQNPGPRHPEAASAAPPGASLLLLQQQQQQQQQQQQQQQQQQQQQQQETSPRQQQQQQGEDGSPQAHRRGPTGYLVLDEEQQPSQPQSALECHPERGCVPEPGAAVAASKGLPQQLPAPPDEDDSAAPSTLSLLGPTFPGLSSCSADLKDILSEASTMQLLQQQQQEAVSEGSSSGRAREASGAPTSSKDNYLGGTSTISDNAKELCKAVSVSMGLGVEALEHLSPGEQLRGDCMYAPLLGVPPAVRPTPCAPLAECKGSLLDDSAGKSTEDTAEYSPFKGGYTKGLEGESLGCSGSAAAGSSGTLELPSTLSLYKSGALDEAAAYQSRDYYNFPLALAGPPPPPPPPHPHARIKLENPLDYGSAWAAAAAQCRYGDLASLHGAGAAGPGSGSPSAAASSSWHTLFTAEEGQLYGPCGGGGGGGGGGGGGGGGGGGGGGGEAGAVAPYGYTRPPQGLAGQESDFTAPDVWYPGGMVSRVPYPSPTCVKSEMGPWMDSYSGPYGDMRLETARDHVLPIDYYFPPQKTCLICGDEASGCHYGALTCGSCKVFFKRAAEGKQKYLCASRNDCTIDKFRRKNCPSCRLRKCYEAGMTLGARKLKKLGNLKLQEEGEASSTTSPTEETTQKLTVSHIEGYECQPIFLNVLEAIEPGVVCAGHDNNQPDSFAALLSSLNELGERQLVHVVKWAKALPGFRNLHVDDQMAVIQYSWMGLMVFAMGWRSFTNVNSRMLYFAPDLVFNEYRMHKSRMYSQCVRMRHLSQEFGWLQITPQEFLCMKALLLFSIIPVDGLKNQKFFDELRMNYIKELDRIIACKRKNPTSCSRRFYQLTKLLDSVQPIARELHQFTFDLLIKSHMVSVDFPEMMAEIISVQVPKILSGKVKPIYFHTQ
Nature of the series: biochemical.

Description for Androgen receptor: Displacement of [3H]methyltrienolone from androgen receptor in human LNCaP cells after 1440 mins by scintillation counting method

As for `CC(C)[C@H](NC(=O)C(C)(F)F)[C@H](Oc1ccc2c(cnn2-c2ccc(=O)n(C)c2)c1)c1ccccc1` [MIZACORAT], the TI on Glucocorticoid receptor [1] stood at 0.55. The compound further displayed a Cmax/dose in the series with Rattus norvegicus of 950 nM. In addition, the IC50 was 19 nM against Glucocorticoid receptor [2] and > 100000 nM at Androgen receptor. The half-life in series [3] was 1.9 h. Moreover, in series [4], the Cmax was determined as 2000 nM.

(Values after ChEMBL document CHEMBL4190372, “Discovery of a Novel Oral Glucocorticoid Receptor Modulator (AZD9567) with Improved Side Effect Profile” (J Med Chem, 2018).)
